The record followed here is US12371428B2 (Exelixis, Inc., priority 2019, dated 2025).

What is called IC50 is the concentration that gives 50% inhibition.

Assay [1] concerns the target Met (phospho-Met, HGF-stimulated PC-3 prostate cancer cells) (Homo sapiens (Human), UniProt P08581). Description: Met autophosphorylation ELISA in PC-3 cells (Example F). Type of assay: cell-based. To be noted: cellular activity; Met autophosphorylation ELISA in PC-3 cells; read-out: c-Met IC50. In a few lines: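 Serum-starved (3 h) PC-3 cells were treated 1 h with compounds (8-point curve, 0.3% DMSO), then stimulated with 100 ng/mL human HGF for 10 min. Lysate phospho-Met (panTyr) was measured by sandwich ELISA, normalised to DMSO and reference-inhibitor controls. IC50 came from 4-parameter logistic fit.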
Background: In an ELISA, binding on a coated surface is turned into a signal by an enzyme label.

Assay [2] addresses Mer (phospho-Mer, MERTK-transfected 293A cells) (Homo sapiens (Human), UniProt Q12866). Description: Mer autophosphorylation ELISA in transient transfected 293A cells (Example H). Type of assay: cell-based. The following applies: cellular activity; Mer autophosphorylation ELISA in transient transfected 293A cells. In a few lines: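 IC50 from 4-parameter logistic fit of phospho-Mer levels, quantified by ELISA against a phospho-Mer standard in lysates of MERTK-transfected 293A cells. Cells exposed 1 h to 8-point serial dilutions, serum-free, 0.3% DMSO; controls: DMSO (100%) and reference inhibitor (0%).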

Chain of Met (phospho-Met, HGF-stimulated PC-3 prostate cancer cells) (P08581 25-1390): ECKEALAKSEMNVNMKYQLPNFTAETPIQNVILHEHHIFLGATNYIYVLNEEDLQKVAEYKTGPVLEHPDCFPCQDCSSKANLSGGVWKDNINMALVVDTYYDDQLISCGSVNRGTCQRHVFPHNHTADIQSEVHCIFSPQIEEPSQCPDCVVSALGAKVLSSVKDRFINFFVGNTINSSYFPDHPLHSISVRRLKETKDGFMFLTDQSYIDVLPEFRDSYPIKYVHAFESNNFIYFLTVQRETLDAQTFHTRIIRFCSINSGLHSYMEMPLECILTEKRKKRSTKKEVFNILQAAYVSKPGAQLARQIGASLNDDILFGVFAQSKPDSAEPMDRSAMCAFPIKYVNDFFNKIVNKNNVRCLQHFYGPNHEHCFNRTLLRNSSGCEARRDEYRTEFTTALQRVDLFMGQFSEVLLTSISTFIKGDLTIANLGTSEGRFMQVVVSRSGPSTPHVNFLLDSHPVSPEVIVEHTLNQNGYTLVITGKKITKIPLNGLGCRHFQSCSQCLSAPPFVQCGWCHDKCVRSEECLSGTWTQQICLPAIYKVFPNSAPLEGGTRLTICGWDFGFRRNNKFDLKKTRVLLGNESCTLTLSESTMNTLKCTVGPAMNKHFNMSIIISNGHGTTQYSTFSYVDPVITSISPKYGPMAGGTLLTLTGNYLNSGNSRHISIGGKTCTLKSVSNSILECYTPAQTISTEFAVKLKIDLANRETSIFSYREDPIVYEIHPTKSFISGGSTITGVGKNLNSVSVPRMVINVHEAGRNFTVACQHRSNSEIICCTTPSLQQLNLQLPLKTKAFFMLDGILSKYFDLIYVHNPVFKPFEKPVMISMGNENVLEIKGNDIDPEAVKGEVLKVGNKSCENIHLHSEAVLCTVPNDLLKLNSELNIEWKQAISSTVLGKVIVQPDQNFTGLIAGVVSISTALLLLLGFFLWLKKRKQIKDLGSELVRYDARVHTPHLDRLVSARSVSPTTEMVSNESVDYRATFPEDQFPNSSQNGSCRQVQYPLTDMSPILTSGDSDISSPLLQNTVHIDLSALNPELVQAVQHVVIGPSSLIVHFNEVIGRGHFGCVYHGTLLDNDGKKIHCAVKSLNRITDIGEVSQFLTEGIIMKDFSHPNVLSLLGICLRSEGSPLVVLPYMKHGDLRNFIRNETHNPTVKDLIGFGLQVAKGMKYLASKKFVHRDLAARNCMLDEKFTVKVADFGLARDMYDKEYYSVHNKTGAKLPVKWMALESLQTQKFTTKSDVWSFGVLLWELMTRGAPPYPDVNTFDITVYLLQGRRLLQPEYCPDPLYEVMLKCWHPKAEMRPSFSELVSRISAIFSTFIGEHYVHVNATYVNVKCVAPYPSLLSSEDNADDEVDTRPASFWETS
Chain of Mer (phospho-Mer, MERTK-transfected 293A cells) (Q12866 21-999): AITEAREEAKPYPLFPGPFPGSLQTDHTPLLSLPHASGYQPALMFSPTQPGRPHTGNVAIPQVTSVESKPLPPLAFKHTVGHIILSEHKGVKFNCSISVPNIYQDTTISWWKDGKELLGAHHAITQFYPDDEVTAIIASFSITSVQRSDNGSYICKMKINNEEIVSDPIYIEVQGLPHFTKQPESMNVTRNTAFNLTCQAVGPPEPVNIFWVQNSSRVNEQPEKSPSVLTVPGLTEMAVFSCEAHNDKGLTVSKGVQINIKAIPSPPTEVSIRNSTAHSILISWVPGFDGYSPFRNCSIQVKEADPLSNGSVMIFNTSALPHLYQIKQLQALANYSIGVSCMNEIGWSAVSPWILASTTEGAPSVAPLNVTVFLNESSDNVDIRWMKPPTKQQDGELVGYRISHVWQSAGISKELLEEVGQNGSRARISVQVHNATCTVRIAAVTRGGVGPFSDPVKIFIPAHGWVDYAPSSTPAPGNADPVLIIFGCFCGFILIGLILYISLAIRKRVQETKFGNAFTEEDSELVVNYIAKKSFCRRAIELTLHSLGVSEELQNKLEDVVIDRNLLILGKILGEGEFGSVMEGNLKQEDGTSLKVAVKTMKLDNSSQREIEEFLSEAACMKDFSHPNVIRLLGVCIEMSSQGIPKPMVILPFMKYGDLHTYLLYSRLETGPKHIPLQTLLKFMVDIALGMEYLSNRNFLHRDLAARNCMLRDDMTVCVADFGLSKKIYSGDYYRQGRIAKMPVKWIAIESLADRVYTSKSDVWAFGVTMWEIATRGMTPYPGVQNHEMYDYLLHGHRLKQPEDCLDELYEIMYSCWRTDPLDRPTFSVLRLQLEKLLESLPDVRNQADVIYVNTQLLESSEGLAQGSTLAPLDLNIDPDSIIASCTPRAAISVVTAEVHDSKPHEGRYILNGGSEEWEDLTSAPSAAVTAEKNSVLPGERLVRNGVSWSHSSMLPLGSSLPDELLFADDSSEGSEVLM

Regarding `C=Cc1cc2nccc(Oc3ccc(NC(=O)c4cnc(C)c(-c5ccc(F)cc5C)c4O)cc3F)c2nc1OC` [Compound 423, N-[4-[(7-ethenyl-6-methoxy-1,5-naphthyridin-4-yl)oxy]-3-fluorophenyl]-5-(4-fluoro-2-methylphenyl)-4-hydroxy-6-methylpyridine-3-carboxamide], the concentration for half-maximal inhibition (IC50) in assay [1] and in assay [2] was below 100 nM throughout.

In the case of `COc1ccc2nccc(Oc3ccc(NC(=O)c4c(C)nc(C)c(-c5ccc(F)cc5)c4O)cc3F)c2n1` [Compound 67, N-[3-Fluoro-4-[(6-methoxy-1,5-naphthyridin-4-yl)oxy]phenyl]-5-(4-fluorophenyl)-4-hydroxy-2,6-dimethylpyridine-3-carboxamide], the IC50 in assay [1] and in assay [2] was below 100 nM each time.

As to `COc1cc2nccc(Oc3ccc(NC(=O)c4c(C)nc(OC)c(-c5ccc(F)cc5)c4O)cc3F)c2nc1OC` [Compound 442, N-[4-[(6,7-dimethoxy-1,5-naphthyridin-4-yl)oxy]-3-fluorophenyl]-5-(4-fluorophenyl)-4-hydroxy-6-methoxy-2-methylpyridine-3-carboxamide], the IC50 in assay [1] and in assay [2] was below 100 nM each time.

As to `COc1cc2nccc(Oc3ccc(NC(=O)c4cn(C)c(C)c(-c5ccc(F)cc5C)c4=O)cc3F)c2nc1OC` [Compound 75, N-[4-[(6,7-Dimethoxy-1,5-naphthyridin-4-yl)oxy]-3-fluorophenyl]-5-(4-fluoro-2-methylphenyl)-1,6-dimethyl-4-oxopyridine-3-carboxamide], the half-inhibitory concentration (IC50) in assay [1] and in assay [2] was below 100 nM in each case.

For `COc1cc2nccc(Oc3ccc(NC(=O)c4c(C)nc(O)c(-c5ccc(F)cc5)c4O)cc3F)c2nc1OC` [Compound 443, N-[4-[(6,7-dimethoxy-1,5-naphthyridin-4-yl)oxy]-3-fluorophenyl]-5-(4-fluorophenyl)-4,6-dihydroxy-2-methylpyridine-3-carboxamide], the concentration for half-maximal inhibition (IC50) in assay [1] is 100 to 300 nM; in assay [2] it was below 100 nM.

For `CCn1cc(-c2ccc(F)cc2)c(=O)c(C(=O)Nc2ccc(Oc3ccnc4cc(OC)c(OC)nc34)c(F)c2)c1C` [Compound 82, N-[4-[(6,7-Dimethoxy-1,5-naphthyridin-4-yl)oxy]-3-fluorophenyl]-1-ethyl-5-(4-fluorophenyl)-2-methyl-4-oxopyridine-3-carboxamide], the half-inhibitory concentration (IC50) in assay [1] and in assay [2] was below 100 nM throughout.

As for `COCCOc1nc2c(Oc3ccc(NC(=O)c4cnc(C)c(-c5ccc(F)cc5)c4O)cc3F)ccnc2cc1OC` [Compound 68, N-[3-Fluoro-4-[[7-methoxy-6-(2-methoxyethoxy)-1,5-naphthyridin-4-yl]oxy]phenyl]-5-(4-fluorophenyl)-4-hydroxy-6-methylpyridine-3-carboxamide], the half-inhibitory concentration (IC50) in assay [1] and in assay [2] was below 100 nM each time.

Turning to `CCn1cc(C(=O)Nc2ccc(Oc3ccnc4cc(OC)c(OC)nc34)c(F)c2)c(=O)c(-c2ccc(F)cc2)c1C` [Compound 63, N-[4-[(6,7-Dimethoxy-1,5-naphthyridin-4-yl)oxy]-3-fluorophenyl]-1-ethyl-5-(4-fluorophenyl)-6-methyl-4-oxopyridine-3-carboxamide], the 50% inhibitory concentration (IC50) in assay [1] and in assay [2] was below 100 nM in each case.

Take `COc1ccc2nccc(Oc3ccc(NC(=O)c4n[nH]c(C)c(-c5ccc(F)cc5)c4=O)cc3F)c2n1` [Compound 89, N-[3-Fluoro-4-[(6-methoxy-1,5-naphthyridin-4-yl)oxy]phenyl]-5-(4-fluorophenyl)-6-methyl-4-oxo-1H-pyridazine-3-carboxamide]: the IC50 in assay [1] and in assay [2] was below 100 nM throughout.

In the case of `COc1cnc2c(Oc3ccc(NC(=O)c4c(C)nc(C)c(-c5ccc(F)cc5)c4O)cc3F)ccnc2c1` [Compound 66, N-[3-Fluoro-4-[(7-methoxy-1,5-naphthyridin-4-yl)oxy]phenyl]-5-(4-fluorophenyl)-4-hydroxy-2,6-dimethylpyridine-3-carboxamide], the half-inhibitory concentration (IC50) in assay [1] and in assay [2] was below 100 nM each time.

Turning to `COc1cc2nccc(Oc3ccc(NC(=O)c4cn(C)c(CF)c(-c5ccc(F)cc5)c4=O)cc3F)c2nc1OC` [Compound 73, N-[4-[(6,7-Dimethoxy-1,5-naphthyridin-4-yl)oxy]-3-fluorophenyl]-6-(fluoromethyl)-5-(4-fluorophenyl)-1-methyl-4-oxopyridine-3-carboxamide], the IC50 in assay [1] and in assay [2] was below 100 nM throughout.

With `CCOc1c(-c2ccc(F)cc2)cnc(C)c1C(=O)Nc1ccc(Oc2ccnc3cc(OC)c(OC)nc23)c(F)c1` [Compound 403, N-[4-[(6,7-dimethoxy-1,5-naphthyridin-4-yl)oxy]-3-fluorophenyl]-4-ethoxy-5-(4-fluorophenyl)-2-methylpyridine-3-carboxamide], the IC50 in assay [1] and in assay [2] was below 100 nM in each case.

Take `COc1cc2nccc(Oc3ccc(NC(=O)c4cn(C)c(C)c(-c5ccc(F)cc5)c4=O)cc3)c2nc1OC` [Compound 65, N-[4-[(6,7-Dimethoxy-1,5-naphthyridin-4-yl)oxy]phenyl]-5-(4-fluorophenyl)-1,6-dimethyl-4-oxopyridine-3-carboxamide]: the half-inhibitory concentration (IC50) in assay [1] and in assay [2] was below 100 nM throughout.

On to `CCc1cc2nccc(Oc3ccc(NC(=O)c4cnc(C)c(-c5ccc(F)cc5C)c4O)cc3F)c2nc1OC` [Compound 421, N-[4-[(7-ethyl-6-methoxy-1,5-naphthyridin-4-yl)oxy]-3-fluorophenyl]-5-(4-fluoro-2-methylphenyl)-4-hydroxy-6-methylpyridine-3-carboxamide], for which the half-maximal inhibitory concentration (IC50) in assay [1] and in assay [2] was below 100 nM each time.

On to `COc1cc2nccc(Oc3ccc(NC(=O)c4n[nH]c(C)c(-c5ccc(F)cc5C)c4=O)cc3F)c2nc1OC` [Compound 90, N-[4-[(6,7-Dimethoxy-1,5-naphthyridin-4-yl)oxy]-3-fluorophenyl]-5-(4-fluoro-2-methylphenyl)-6-methyl-4-oxo-1H-pyridazine-3-carboxamide], for which the IC50 in assay [1] and in assay [2] was below 100 nM each time.

For `COc1cc2nccc(Oc3ccc(NC(=O)c4cn(C5CC5)c(C)c(-c5ccc(F)cc5)c4=O)cc3F)c2nc1OC` [Compound 433, 1-cyclopropyl-N-[4-[(6,7-dimethoxy-1,5-naphthyridin-4-yl)oxy]-3-fluorophenyl]-5-(4-fluorophenyl)-6-methyl-4-oxopyridine-3-carboxamide], the IC50 in assay [1] and in assay [2] was below 100 nM in each case.

On to `COc1cc2nccc(Oc3ccc(NC(=O)c4cn(C)c(C#N)c(-c5ccc(F)cc5)c4=O)cc3F)c2nc1OC` [Compound 77, 6-Cyano-N-[4-[(6,7-dimethoxy-1,5-naphthyridin-4-yl)oxy]-3-fluorophenyl]-5-(4-fluorophenyl)-1-methyl-4-oxopyridine-3-carboxamide], for which the IC50 in assay [1] and in assay [2] was below 100 nM throughout.

For the compound `COc1cc2nccc(Oc3ccc(NC(=O)c4cnc(C)c(-c5ccc(F)cc5C)c4O)cc3)c2nc1OC(C)C` [Compound 414, 5-(4-fluoro-2-methylphenyl)-4-hydroxy-N-[4-[(7-methoxy-6-propan-2-yloxy-1,5-naphthyridin-4-yl)oxy]phenyl]-6-methylpyridine-3-carboxamide], the IC50 in assay [1] and in assay [2] was below 100 nM in each case.

`Cc1cc2nccc(Oc3ccc(NC(=O)c4cnc(C)c(-c5ccc(F)cc5)c4O)cc3F)c2nc1F` [Compound 426, N-[3-fluoro-4-[(6-fluoro-7-methyl-1,5-naphthyridin-4-yl)oxy]phenyl]-5-(4-fluorophenyl)-4-hydroxy-6-methylpyridine-3-carboxamide]: the 50% inhibitory concentration (IC50) in assay [1] and in assay [2] was below 100 nM each time.

As for `COc1cc2nccc(Oc3ccc(NC(=O)c4cn(C5(C(F)(F)F)CC5)cc(-c5ccc(F)cc5)c4=O)cc3F)c2nc1OC` [Compound 59, N-[4-[(6,7-Dimethoxy-1,5-naphthyridin-4-yl)oxy]-3-fluorophenyl]-5-(4-fluorophenyl)-4-oxo-1-[1-(trifluoromethyl)cyclopropyl]pyridine-3-carboxamide], the IC50 in assay [1] and in assay [2] was below 100 nM each time.

On to `COc1ccc2nccc(Oc3ccc(NC(=O)c4ccc(C)n(-c5ccc(F)cc5C)c4=O)cc3F)c2n1` [Compound 85, N-[3-Fluoro-4-[(6-methoxy-1,5-naphthyridin-4-yl)oxy]phenyl]-1-(4-fluoro-2-methylphenyl)-6-methyl-2-oxopyridine-3-carboxamide], for which the 50% inhibitory concentration (IC50) in assay [1] and in assay [2] was below 100 nM throughout.

For the compound `COc1cc2nccc(Oc3ccc(NC(=O)c4ncnc(-c5ccc(F)cc5)c4O)cc3F)c2nc1OC` [Compound 96, N-[4-[(6,7-Dimethoxy-1,5-naphthyridin-4-yl)oxy]-3-fluorophenyl]-6-(4-fluorophenyl)-5-hydroxypyrimidine-4-carboxamide], the half-maximal inhibitory concentration (IC50) in assay [1] and in assay [2] was below 100 nM throughout.

As to `COc1cc2nccc(Oc3ccc(NC(=O)c4cn(C)c(Cl)c(-c5ccc(F)cc5)c4=O)cc3F)c2nc1OC` [Compound 412, 6-chloro-N-[4-[(6,7-dimethoxy-1,5-naphthyridin-4-yl)oxy]-3-fluorophenyl]-5-(4-fluorophenyl)-1-methyl-4-oxopyridine-3-carboxamide], the concentration for half-maximal inhibition (IC50) in assay [1] and in assay [2] was below 100 nM throughout.

As to `CCn1cc(C(=O)Nc2ccc(Oc3ccnc4cc(O)cnc34)c(F)c2)c(=O)c(-c2ccc(F)cc2)c1C` [Compound 410, 1-ethyl-N-[3-fluoro-4-[(7-hydroxy-1,5-naphthyridin-4-yl)oxy]phenyl]-5-(4-fluorophenyl)-6-methyl-4-oxopyridine-3-carboxamide], the IC50 in assay [1] and in assay [2] was 100 to 300 nM in each case.
